Columns and labels:
Human LDHA = Human LDHA (Homo sapiens (Human), UniProt P00338); assay: human LDHA primary biochemical assay; conditions: biochemical LDHA inhibitory activity, assay of Example 1; activity level classes defined in nM
Outline: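 Human LDHA at 2 nM with 0.06 mM NADH and 0.2 mM sodium pyruvate in 200 mM Tris HCl pH 7.4, 100 μM EDTA, 0.01% TWEEN-20 (final). NADH consumption coupled to resazurin/diaphorase (0.037 mM; 0.133 mg/mL); inhibition read by fluorescence.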

MiaPaCa2 cells = assay: cell-based HT lactate assay by colorimetric/fluorometric detection (cellular inhibition of lactate production); conditions: Homo sapiens, MIA PaCa-2, assay of Example 6
Outline: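 Miniaturised colorimetric/fluorometric lactate kit assay, about 3.5 h total, measuring cellular lactate production. MiaPaCa2 seeded at 500 cells/well, a density chosen so lactate falls near 90% of the standard curve range.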

SMILES	IC50 (Human LDHA)	IC50 (MiaPaCa2 cells)
CN(C)c1ccc(-c2cccc(-c3nn(-c4nc(C(=O)O)cs4)c(CC4CC4)c3Cc3ccc(S(N)(=O)=O)c(F)c3)c2)cc1 [Compound 178, 2-(5-(cyclopropylmethyl)-3-(4′-(dimethylamino)-[1,1′-biphenyl]-3-yl)-4-(3-fluoro-4-sulfamoylbenzyl)-1H-pyrazol-1-yl)thiazole-4-carboxylic acid]	< 100 nM	> 57 µM
Cc1ccc(C#Cc2cccc(-c3nn(-c4nc(C(=O)NC#N)cs4)c(CC4CC4)c3Cc3ccc(S(N)(=O)=O)c(F)c3)c2)s1 [Compound 179, N-cyano-2-(5-(cyclopropylmethyl)-4-(3-fluoro-4-sulfamoylbenzyl)-3-(3-((5-methylthiophen-2-yl)ethynyl)phenyl)-1H-pyrazol-1-yl)thiazole-4-carboxamide]	1000 to 57000 nM	> 57 µM

Reference: patent publication US10954228B2 (NATIONAL INSTITUTES OF HEALTH, UNITED STATES DEPARTMENT OF …, priority 2016, dated 2021)
